# Results reported in ChEMBL document CHEMBL5244255, “An insight on medicinal attributes of 1,2,4-triazoles” (Eur J Med Chem, 2020).
# pEC50, pIC50: −log10 of the molar value.
# Key:
# [1] = target: DNA topoisomerase II (Homo sapiens, UniProt P11388+Q02880); assay: Inhibition of human Topoisomerase 2 incubated for 30 mins by ELISA assay; format: protein assay
# [2] = test system: Mus musculus; assay: Anticonvulsant activity in ip dosed mouse; format: functional
# [3] = Protection index, ratio of TD50 for neurotoxicity in ip dosed mouse to ED50 for anticonvulsant activity in ip dosed mouse; format: toxicity, organism-based; conditions: in vivo, read-out: Ratio TD50/ED50
# [4] = species: Mus musculus; assay: Antiseizure activity against ScPTZ-induced seizure in mouse; format: functional; conditions: route sc
# [5] = species: Mus musculus; assay: Anticonvulsant activity in mouse assessed as MES-induced seizures measured after 30 mins; format: functional; conditions: 0.5 h
# [6] = test system: Mus musculus; assay: Anticonvulsant activity in po dosed mouse assessed as MES-induced seizures; format: functional
# [7] = Protection index, ratio of TD50 for neurotoxicity in po dosed mouse to ED50 for anticonvulsant activity in ip dosed mouse; format: toxicity, organism-based; conditions: in vivo, read-out: Ratio TD50/ED50
# [8] = test system: A549; assay: Anticancer activity against human A549 cells assessed as cell growth inhibition incubated for 48 hrs by MTT assay; format: functional, cell-based; conditions: A549, 48 h
# [9] = test system: BT-20; assay: Anticancer activity against human BT-20 cells assessed as cell growth inhibition incubated for 48 hrs by MTT assay; format: functional, cell-based; conditions: BT-20, 48 h
# [10] = test system: DU-145; assay: Anticancer activity against human DU-145 cells assessed as cell growth inhibition incubated for 48 hrs by MTT assay; format: functional, cell-based; conditions: DU-145, 48 h
# [11] = test system: BT-20; assay: Potency index, ratio of test compound IC50 to cisplatin IC50 for antiproliferative against human BT-20 cells; format: functional
# [12] = Anticancer activity against human SK-MEL-128 cells assessed as cell growth inhibition incubated for 48 hrs by MTT assay; format: functional, cell-based; conditions: SK-MEL-128, 48 h
# [13] = test system: Rattus norvegicus; assay: Antiinflammatory activity in rat assessed as reduction in edema at 17 mg/kg, ip measured after 5 hrs relative to control; format: functional; parameters: scale not given: the % may be the effect or the level left
# [14] = test system: Xanthomonas oryzae pv. oryzae; assay: Antibacterial activity against Xanthomonas oryzae pv. oryzae assessed as bacterial growth inhibition by turbidimetric method; format: functional, organism-based
# [15] = test system: Xanthomonas oryzae pv. oryzae; assay: Antibacterial activity against Xanthomonas oryzae pv. oryzae assessed as bacterial growth inhibition; format: functional, organism-based
# [16] = Inhibition of 5 alpha reductase (unknown origin)
# [17] = test system: MCF7; assay: Antiproliferative activity against human MCF7 cells assessed as cell growth inhibition incubated for 48 hrs by MTT assay; format: functional, cell-based; conditions: MCF7, 48 h
# [18] = test system: RS4-11; assay: Antiproliferative activity against human RS4-11 cells assessed as cell growth inhibition incubated for 48 hrs by MTT assay; format: functional, cell-based; conditions: RS4-11, 48 h
# [19] = target: Tubulin (Bos taurus, UniProt Q6B856+Q862L2+Q862F3); assay: Inhibition of bovine brain tubulin polymerization incubated for 20 mins in presence of GTP
# [20] = test system: Jurkat; assay: Antiproliferative activity against human jurkat cells assessed as cell growth inhibition incubated for 48 hrs by MTT assay; format: functional, cell-based
# [21] = test system: HeLa; assay: Antiproliferative activity against human HeLa cells assessed as cell growth inhibition incubated for 48 hrs by MTT assay; format: functional, cell-based
# [22] = test system: HT-29; assay: Antiproliferative activity against human HT-29 cells assessed as cell growth inhibition incubated for 48 hrs by MTT assay; format: functional, cell-based; conditions: HT-29, 48 h
# [23] = species: Rattus norvegicus; assay: Bronchodilator activity in Sprague-Dawley rat; format: functional, organism-based
# [24] = test system: Plasmodium falciparum; assay: Antimalarial activity against Chloroquine resistant Plasmodium falciparum W2; format: functional, organism-based
# [25] = test system: Acinetobacter haemolyticus; assay: Antibacterial activity against Acinetobacter haemolyticus ATCC 19002 assessed as bacterial growth inhibition by double micro dilution method; format: functional
# [26] = test system: Pseudomonas aeruginosa; assay: Antibacterial activity against Pseudomonas aeruginosa ATCC 27853 assessed as bacterial growth inhibition by double micro dilution method; format: functional
# [27] = test system: Enterococcus faecalis; assay: Antibacterial activity against Enterococcus faecalis ATCC 29212 assessed as bacterial growth inhibition by double micro dilution method; format: functional
# [28] = test system: Staphylococcus aureus; assay: Antibacterial activity against Staphylococcus aureus ATCC 25923 assessed as bacterial growth inhibition by double micro dilution method; format: functional
# [29] = test system: Klebsiella pneumoniae; assay: Antibacterial activity against Klebsiella pneumoniae ATCC 13883 assessed as bacterial growth inhibition by double micro dilution method; format: functional
# [30] = test system: Escherichia coli; assay: Antibacterial activity against Escherichia coli ATCC 25922 assessed as bacterial growth inhibition by double micro dilution method; format: functional
# [31] = test system: Mycobacterium tuberculosis; assay: Antimycobacterial activity against Mycobacterium tuberculosis H37Rv by test tube dilution technique; format: functional
# [32] = test system: Middle East respiratory syndrome-related coronavirus; assay: Antiviral activity of Middle East respiratory syndrome coronavirus; format: functional, organism-based
# [33] = test system: Mycobacterium tuberculosis; assay: Antimycobacterial activity against Mycobacterium tuberculosis H37Rv measured after 7 days; format: functional; conditions: 168 h, time 7 day
# [34] = test system: Mus musculus; assay: Anticonvulsant activity in ip dosed mouse assessed as protection against PTZ-induced seizure; format: functional
# [35] = target: Epidermal growth factor receptor (Homo sapiens, UniProt P00533); assay: Inhibition of EGFR (unknown origin) […] insect sf9 cells incubated for 1 hrs in presence of ATP
# [36] = Inhibition of BRAF V600E mutant (unknown origin) incubated for 25 mins in presence of ATP by ELISA assay; parameters: species or system Homo sapiens
# [37] = target: Tubulin; assay: Inhibition of tubulin (unknown origin); format: protein-complex assay, Homo sapiens
# [38] = test system: Rattus norvegicus; assay: Antiinflammatory activity in rat assessed as reduction in carrageenan induced edema at 10 mg/kg, po measured after 4 to 5 hrs relative to control; format: functional; parameters: scale not given: the % may be the effect or the level left; conditions: time 4-5 hrs
# [39] = test system: Leishmania major; assay: Antileishmanial activity against promastigotes stage of Leishmania major; format: functional, organism-based
# [40] = test system: Leishmania major; assay: Potency index, ratio of test compound IC50 to amphotericin B IC50 for antileishmanial activity against promastigotes stage of leishmania major; format: functional
# [41] = test system: Leishmania major; assay: Potency index, ratio of test compound IC50 to miltefosine IC50 for antileishmanial activity against promastigotes stage of leishmania major; format: functional
# Chain of Epidermal growth factor receptor (P00533 whole entry): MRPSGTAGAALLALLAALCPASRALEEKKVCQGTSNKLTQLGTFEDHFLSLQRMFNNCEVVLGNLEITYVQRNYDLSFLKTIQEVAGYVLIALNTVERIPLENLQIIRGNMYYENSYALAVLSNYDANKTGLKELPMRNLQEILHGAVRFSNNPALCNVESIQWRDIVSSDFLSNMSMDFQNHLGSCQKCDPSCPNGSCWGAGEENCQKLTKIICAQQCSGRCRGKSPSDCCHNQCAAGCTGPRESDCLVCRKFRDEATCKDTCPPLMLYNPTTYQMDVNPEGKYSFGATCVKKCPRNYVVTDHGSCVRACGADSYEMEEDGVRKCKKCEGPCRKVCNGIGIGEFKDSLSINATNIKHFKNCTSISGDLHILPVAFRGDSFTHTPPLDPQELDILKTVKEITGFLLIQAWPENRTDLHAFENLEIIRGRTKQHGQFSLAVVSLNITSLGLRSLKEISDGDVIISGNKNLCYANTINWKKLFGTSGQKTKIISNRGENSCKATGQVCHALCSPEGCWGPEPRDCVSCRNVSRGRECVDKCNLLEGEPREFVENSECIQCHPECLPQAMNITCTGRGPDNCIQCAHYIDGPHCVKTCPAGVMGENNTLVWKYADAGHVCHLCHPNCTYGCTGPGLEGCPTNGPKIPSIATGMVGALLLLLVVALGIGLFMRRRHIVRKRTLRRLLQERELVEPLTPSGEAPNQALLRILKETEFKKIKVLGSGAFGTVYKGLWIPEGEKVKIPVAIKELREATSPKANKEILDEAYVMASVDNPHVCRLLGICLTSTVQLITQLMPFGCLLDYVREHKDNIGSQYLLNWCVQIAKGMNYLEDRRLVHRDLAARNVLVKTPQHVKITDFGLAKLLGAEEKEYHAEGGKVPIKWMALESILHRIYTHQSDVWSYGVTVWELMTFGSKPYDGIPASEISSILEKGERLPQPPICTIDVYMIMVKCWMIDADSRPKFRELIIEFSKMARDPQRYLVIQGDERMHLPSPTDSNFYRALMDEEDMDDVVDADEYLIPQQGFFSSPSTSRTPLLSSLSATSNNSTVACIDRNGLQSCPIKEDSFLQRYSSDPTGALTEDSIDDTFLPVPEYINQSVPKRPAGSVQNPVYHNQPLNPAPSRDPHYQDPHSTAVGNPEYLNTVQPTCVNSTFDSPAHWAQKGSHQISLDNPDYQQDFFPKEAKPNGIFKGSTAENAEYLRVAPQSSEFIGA
smiles,measurement,setting,value
O=C(CSc1nc2ccccc2n2cnnc12)Nc1ccc(S(=O)(=O)Nc2ccccn2)cc1,IC50,[1],970 nM
O=c1[nH]nc2n1-c1ccc(OCc3ccc(F)cc3)cc1SC2,ED50,[2],9.2 mg/kg
same,selectivity ratio,[3],15.4
O=C(CSc1nc[nH]n1)Nc1nc2ccc(OCc3ccc(F)cc3)cc2s1,ED50,[4],52.8 mg/kg
same,ED50,[5],54.8 mg/kg
O=c1c2ccccc2n2cnnc2n1-c1ccc(Br)cc1,ED50,[6],94.6 mg/kg
same,selectivity ratio,[7],> 26
Nn1c(Cc2ccccc2Br)nn(CC(=O)NNC(=O)c2cc3cc(Cl)cc(Cl)c3oc2=O)c1=O,IC50,[8],3.1 µg/mL
same,IC50,[9],3.1 µg/mL
same,IC50,[10],3.1 µg/mL
same,Ratio IC50,[11],5.2
same,IC50,[12],3.1 µg/mL
COc1ccc(-c2cc(-c3nnc(SCC(=O)Nc4ccc(/C(C)=N/O)cc4)n3-c3ccccc3)c3cc(C)ccc3n2)cc1,Activity,[13],101%
S=c1[nH]nc(NCNc2n[nH]c(=S)s2)s1,EC50,[14],89.8 µg/mL
same,EC50,[15],85.6 µg/mL
O=C(Nc1ccccc1)C1=NN(c2ccccc2)/C(=C2/C=NN(Cc3cc4ccccc4oc3=O)C2=O)N1c1ccccc1,ED50,[16],150 nM
O=C(CSc1nc[nH]n1)Nc1nc2ccc(OCc3cccc(F)c3)cc2s1,ED50,[4],76 mg/kg
same,ED50,[5],50.8 mg/kg
COc1ccc(-c2nc(N)n(C(=O)c3cc(OC)c(OC)c(OC)c3)n2)cc1,pIC50,[17],> 6.00
same,pIC50,[18],> 6.00
same,IC50,[19],970 nM
same,pIC50,[20],> 6.00
same,pIC50,[21],> 6.00
same,pIC50,[22],> 6.00
COc1cc(C(=O)n2nc(-c3ccc(C)cc3)nc2N)cc(OC)c1OC,pIC50,[17],> 6.00
same,pIC50,[18],> 6.00
same,IC50,[19],660 nM
same,pIC50,[20],> 6.00
same,pIC50,[21],> 6.00
same,pIC50,[22],> 6.00
O=c1c(-c2n[nH]c(=S)n2-c2ccccc2)c[nH]c2ncnn12,pEC50,[23],4.24
COc1ccc(Nc2cc(C)nc3nc(C(F)(F)F)nn23)cc1,pIC50,[24],7.64
Cn1c(=O)c2nc[nH]c2n(C)c1=O [THEOPHYLLINE],pEC50,[23],3.37
Cc1cc(Nc2ccc(C(F)(F)F)cc2)n2nc(C(F)(F)F)nc2n1,pIC50,[24],7.64
C=Cn1c(SCC(=O)Nc2ccc(/C(C)=N/O)cc2)nnc1-c1cc(-c2ccc(OC)cc2)nc2ccccc12,Activity,[13],111%
O=C(O)c1cn(C2CC2)c2cc(N3CCN(Cn4nc(CN5CCN(c6ccccc6)CC5)n(-c5ccccc5)c4=S)CC3)c(F)cc2c1=O,MIC,[25],0.125 µg/mL
same,MIC,[26],0.125 µg/mL
same,MIC,[27],0.125 µg/mL
same,MIC,[28],0.125 µg/mL
same,MIC,[29],0.125 µg/mL
same,MIC,[30],0.125 µg/mL
O=c1c2ccccc2n2cnnc2n1-c1ccc(Cl)cc1,ED50,[6],88 mg/kg
same,selectivity ratio,[7],> 25.5
Fc1ccc(-c2nn3c(COc4cnccn4)nnc3s2)cc1,MIC,[31],1 µg/mL
NC(=O)N1c2ccccc2C=Cc2ccccc21 [CARBAMAZEPINE],ED50,[2],11.8 mg/kg
same,selectivity ratio,[3],6.4
Sc1nnc(NNc2ccc(Cl)cc2)n1NC1C=CCC1 (centres undefined),pIC50,[32],6.29
Sc1nnc(NNc2ccc(I)cc2)n1NC1C=CCC1 (centres undefined),pIC50,[32],6.33
CC[C@@H](CO)NCCN[C@@H](CC)CO [ETHAMBUTOL],MIC,[33],6.25 µg/mL
CCCOc1ccc(-c2csc3nncn23)cc1,ED50,[34],63.4 mg/kg
same,TD50,[34],106 mg/kg
same,selectivity ratio,[3],1.9
COc1ccc(C(=O)n2nc(-c3cccnc3)nc2N)cc1,pIC50,[35],5.44
same,pIC50,[36],5.72
same,pIC50,[37],6.02
Clc1cccc(Cl)c1Nc1ccccc1Cc1nncn1Nc1nc2ccccc2s1,Activity,[38],85.31%
CC1(c2ccccc2O)NN=C(N)N1C(Cc1cc2ccccc2[nH]1)C(=O)O (centres undefined),IC50,[39],0.0312 µg/mL
same,Ratio IC50,[40],36
same,Ratio IC50,[41],36
